From patent US20250145589A1, “PYRIDINE DERIVATIVE AND USE THEREOF” (SICHUAN HUIYU PHARMACEUTICAL CO., LTD., priority 2021, published 2025) come the findings set out here.

Experiment [1] concerns NCI-H358 cells (KRAS G12C mutant). Put plainly: NCI-H358 cell proliferation inhibition (CellTiter-Glo). It is filed as cell-based. As to conditions: read-out: NCI-H358 (IC50). In general terms: Cellular ATP, detected with luciferase, serves as a proxy for viable cell number.
Experiment [2] has as its system NCI-H358-AMGR drug-resistant cell line. In words: NCI-H358-AMGR drug-resistant cell proliferation inhibitory activity test. It counts as cell-based. To be noted: NCI-H358-AMGR drug-resistant cells, 3 days incubation, CellTiter-Glo. The procedure, abridged:
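Luminescent CellTiter-Glo read-out after 3-day, 37° C compound exposure (8 points, 5-fold series) of AMG510-resistant NCI-H358 cells plated at 4×10^3 per well.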

Setting [3] is: Homo sapiens, NCI-H358, 72 h, H358 cells (G12C mutation), 3 days, Table 6.

Molecules are shown by their SMILES. Read-outs that look alike come from different tables or passages of the source.

Broadly, the IC50 is the concentration that gives 50% inhibition. Regarding `COc1ncc(-c2ccc3ncnc(N4CCN(C(=O)/C=C/C(C)=O)CC4)c3c2)cc1NS(=O)(=O)c1sc(C)nc1C` [Example 160, (E)-N-(2-methoxy-5-(4-(4-(4-oxopent-2-enoyl)piperazin-1-yl)quinazolin-6-yl)pyridin-3-yl)-2,4-dimethylthiazole-5-sulfonamide], the results for the IC50 in experiment [1] (setting [3]) and in experiment [2] (72 h) were 13 nM and 69.5 nM, respectively.

On to `COc1ncc(-c2ccc3ncnc(N4CCN(C(=O)/C=C/C(C)=O)CC4)c3n2)cc1NS(=O)(=O)c1cccc(F)c1F` [Example 218, (E)-2,3-difluoro-N-(2-methoxy-5-(4-(4-(4-oxopent-2-enoyl)piperazin-1-yl)pyrido[3,2-d]pyrimidin-6-yl)pyridin-3-yl) benzene-sulfonamide], for which the IC50 in experiment [1] (setting [3]) is 25.6 nM; in experiment [2] (72 h), 13.5 nM.

Regarding `COc1ncc(-c2ccc3ncnc(N4CCC5(CN(C(=O)/C=C/C(C)=O)C5)C4)c3c2)cc1NS(=O)(=O)c1c(F)cccc1F` [Example 42], the IC50 in experiment [1] was 79 nM; in experiment [2], 132 nM.

In the case of `COc1ncc(-c2ccc3ncnc(N4CCN(C(=O)/C=C/C(C)=O)[C@H](C)C4)c3n2)cc1NS(=O)(=O)c1ccccc1F` [Example 228, (R,E)-2-fluoro-N-(2-methoxy-5-(4-(3-methyl-4-(4-oxopent-2-enoyl)piperazin-1-yl)pyrido[3,2-d]pyrimidin-6-yl)pyridin-3-yl)benzene-sulfonamide], the values for the IC50 in experiment [1] (setting [3]) and in experiment [2] (72 h) were 13.2 nM and 40.3 nM, respectively.

As for `COc1ncc(-c2ccc3ncnc(C4CCN(C(=O)/C=C/C(C)=O)CC4)c3n2)cc1NS(=O)(=O)c1c(F)cc(F)cc1F` [Example 231, (E)-2,4,6-trifluoro-N-(2-methoxy-5-(4-(1-(4-oxopent-2-enoyl)piperidin-4-yl)pyrido[3,2-d]pyrimidin-6-yl)pyridin-3-yl)benzenesulfonamide], the IC50 was 3.7 nM in experiment [1] (setting [3]) and 21.6 nM in experiment [2] (72 h).

As for `COc1ncc(-c2ccc3ncnc(C4CCN(C(=O)/C=C/C(C)=O)CC4)c3c2)cc1NS(=O)(=O)c1c(F)cccc1F` [Example 205, (E)-2,6-difluoro-N-(2-methoxy-5-(4-(1-(4-oxopent-2-enoyl)piperidin-4-yl)quinazolin-6-yl)pyridin-3-yl) benzenesulfonamide], the IC50 in experiment [1] (setting [3]) was determined as 14.3 nM; in experiment [2] (72 h), 15.2 nM.

With `COc1ncc(-c2ccc3ncnc(N4CC5CCC(C4)N5C(=O)/C=C/C(C)=O)c3c2)cc1NS(=O)(=O)c1sc(C)nc1C` [Example 176, N-(2-methoxy-5-(4-(8-((E)-4-oxopent-2-enoyl)-3,8-diazabicyclo [3.2.1]octan-3-yl)quinazolin-6-yl)pyridin-3-yl)-2,4-dimethyl-thiazole-5-sulfonamide], the half-maximal inhibitory concentration (IC50) in experiment [1] (setting [3]) worked out at 27 nM; in experiment [2] (72 h), 76.1 nM.

As to `COc1ncc(-c2ccc3ncnc(N4CCN(C(=O)/C=C/C(C)=O)CC4)c3c2)cc1NS(=O)(=O)c1cccc(F)c1F` [Example 90, (E)-2,3-difluoro-N-(2-methoxy-5-(4-(4-(4-oxopent-2-enoyl)piperazin-1-yl)quinazolin-6-yl)pyridin-3-yl)benzenesulfonamide], the IC50 was 54.5 nM in experiment [1] (setting [3]) and 56.2 nM in experiment [2] (72 h).

As for `COc1ncc(-c2ccc3ncnc(N4CCN(C(=O)/C=C/C(C)=O)CC4)c3c2)cc1NS(=O)(=O)c1ccc(C(F)(F)F)cc1F` [Example 124, (E)-2-fluoro-N-(2-methoxy-5-(4-(4-(4-oxopent-2-enoyl)piperazin-1-yl)quinazolin-6-yl)pyridin-3-yl)-4-(trifluoromethyl)benzenesulfonamide], the IC50 in experiment [1] (setting [3]) was found to be 19.7 nM; in experiment [2] (72 h), 85.5 nM.

Regarding `COc1ncc(-c2ccc3ncnc(N4CCN(C(=O)/C=C/C(C)=O)CC4)c3n2)cc1NS(=O)(=O)c1ccncc1F` [Example 220, (E)-3-fluoro-N-(2-methoxy-5-(4-(4-(4-oxopent-2-enoyl)piperazin-1-yl)pyrido[3,2-d]pyrimidin-6-yl)pyridin-3-yl) pyridine-4-sulfonamide], the IC50 in experiment [1] (setting [3]) worked out at 61.5 nM; in experiment [2] (72 h) it was 207 nM.

For `COc1ncc(-c2ccc3ncnc(N4CCN(C(=O)/C=C/C(C)=O)CC4)c3c2)cc1NS(=O)(=O)c1ccc(F)cc1` [Example 92, (E)-4-fluoro-N-(2-methoxy-5-(4-(4-(4-oxopent-2-enoyl)piperazin-1-yl)quinazolin-6-yl)pyridin-3-yl)benzenesulfonamide], the IC50 is 16.7 nM in experiment [1] (setting [3]) and 111 nM in experiment [2] (72 h).

Regarding `CCCC(=O)/C=C/C(=O)N1CCN(c2ncnc3ccc(-c4cnc(OC)c(NS(=O)(=O)c5ccc(F)cc5F)c4)cc23)CC1` [Example 17, (E)-2,4-difluoro-N-(2-methoxy-5-(4-(4-(4-oxohept-2-enoyl)piperazin-1-yl)quinazolin-6-yl)pyridin-3-yl)benzenesulfonamide], the IC50 in experiment [1] (setting [3]) stood at 34.6 nM; in experiment [2] (72 h) it was 53.3 nM.

Turning to `COc1ncc(-c2ccc3ncnc(N4CCC5(CC4)CN(C(=O)/C=C/C(C)=O)C5)c3c2)cc1NS(=O)(=O)c1ccc(F)cc1Cl` [Example 171, (E)-2-chloro-4-fluoro-N-(2-methoxy-5-(4-(2-(4-oxopent-2-enoyl)-2,7-diazaspiro[3.5]nonan-7-yl)quinazolin-6-yl)pyridin-3-yl)benzene-sulfonamide], the figures for the concentration for half-maximal inhibition (IC50) in experiment [1] (setting [3]) and in experiment [2] (72 h) were 5.7 nM and 41.5 nM, respectively.

Take `COc1ncc(-c2ccc3ncnc(N4CCC5(CC4)CN(C(=O)/C=C/C(C)=O)C5)c3c2)cc1NS(=O)(=O)c1c(F)cc(F)cc1F` [Example 101, (E)-2,4,6-trifluoro-N-(2-methoxy-5-(4-(2-(4-oxopent-2-enoyl)-2,7-diazaspiro[3.5]nonan-7-yl)quinazolin-6-yl)pyridin-3-yl)benzenesulfonamide]: the 50% inhibitory concentration (IC50) is 11.6 nM in experiment [1] (setting [3]) and 28.3 nM in experiment [2] (72 h).

`COc1ncc(-c2ccc3ncnc(N4CC5CCC4CN5C(=O)/C=C/C(C)=O)c3c2)cc1NS(=O)(=O)c1ccc(F)cc1F` (stereo not drawn) [Example 158, (E)-2,4-difluoro-N-(2-methoxy-5-(4-(5-(4-oxopent-2-enoyl)-2,5-diazabicyclo[2.2.2]octan-2-yl)quinazolin-6-yl)pyridin-3-yl)benzenesulfonamide]: the half-maximal inhibitory concentration (IC50) in experiment [1] (setting [3]) was 55.2 nM; in experiment [2] (72 h), 155 nM.

`COc1ncc(-c2ccc3ncnc(N4CCC5(CC4)CN(C(=O)/C=C/C(C)=O)C5)c3c2)cc1NS(=O)(=O)c1ccccc1F` [Example 150, (E)-2-fluoro-N-(2-methoxy-5-(4-(2-(4-oxopent-2-enoyl)-2,7-diazaspiro[3.5]nonan-7-yl)quinazolin-6-yl)pyridin-3-yl)benzenesulfonamide]: the results for the IC50 in experiment [1] (setting [3]) and in experiment [2] (72 h) were 16.4 nM and 112 nM, respectively.

For the compound `COc1ncc(-c2ccc3ncnc(N4CCC5(CC4)CN(C(=O)/C=C/C(C)=O)C5)c3c2)cc1NS(=O)(=O)c1c(F)cccc1F` [Example 49, (E)-2,6-difluoro-N-(2-methoxy-5-(4-(2-(4-oxopent-2-enoyl)-2,7-diazaspiro[3.5]nonan-7-yl)quinazolin-6-yl)pyridin-3-yl) benzenesulfonamide], the IC50 in experiment [1] (setting [3]) came to 32 nM; in experiment [2] (72 h), 45.5 nM.

Turning to `COc1ncc(-c2ccc3ncnc(N4CCN(C(=O)/C=C/C(C)=O)CC4)c3c2)cc1NS(=O)(=O)c1ccc(F)cc1Cl` [Example 169, (E)-2-chloro-4-fluoro-N-(2-methoxy-5-(4-(4-(4-oxopent-2-enoyl)piperazin-1-yl)quinazolin-6-yl)pyridin-3-yl)benzenesulfonamide], the figures for the IC50 in experiment [1] (setting [3]) and in experiment [2] (72 h) were 5.7 nM and 36.2 nM, respectively.

In the case of `COc1ncc(-c2ccc3ncnc(N4CCN(C(=O)/C=C/C(C)=O)CC4)c3c2)cc1NS(=O)(=O)c1ncc(Cl)s1` [Example 165, (E)-5-chloro-N-(2-methoxy-5-(4-(4-(4-oxopent-2-enoyl)piperazin-1-yl)quinazolin-6-yl)pyridin-3-yl)thiazole-2-sulfonamide], the figures for the IC50 in experiment [1] (setting [3]) and in experiment [2] (72 h) were 36.5 nM and 171 nM, respectively.

On to `COc1ncc(-c2ccc3ncnc(C4=CCN(C(=O)/C=C/C(C)=O)CC4)c3c2)cc1NS(=O)(=O)c1c(F)cccc1F` [Example 201, (E)-2,6-difluoro-N-(2-methoxy-5-(4-(1-(4-oxopent-2-enoyl)-1,2,3,6-tetrahydropyridin-4-yl)quinazolin-6-yl)pyridin-3-yl)benzenesulfonamide], for which the values for the 50% inhibitory concentration (IC50) in experiment [1] (setting [3]) and in experiment [2] (72 h) were 7.2 nM and 5.3 nM, respectively.

As for `COc1ncc(-c2ccc3ncnc(C4CCN(C(=O)/C=C/C(C)=O)CC4)c3c2)cc1NS(=O)(=O)c1sc(C)nc1C` [Example 203, (E)-N-(2-methoxy-5-(4-(1-(4-oxopent-2-enoyl)piperidin-4-yl)quinazolin-6-yl)pyridin-3-yl)-2,4-dimethylthiazole-5-sulfonamide], the figures for the IC50 in experiment [1] (setting [3]) and in experiment [2] (72 h) were 8.5 nM and 5.4 nM, respectively.

Regarding `COc1ncc(-c2ccc3ncnc(N4CC5CCC(C4)N5C(=O)/C=C/C(C)=O)c3c2)cc1NS(=O)(=O)c1ccc(F)cc1Cl` [Example 175, 2-chloro-4-fluoro-N-(2-methoxy-5-(4-(8-((E)-4-oxopent-2-enoyl)-3,8-diazabicyclo [3.2.1]octan-3-yl)quinazolin-6-yl)pyridin-3-yl)benzene-sulfonamide], the IC50 in experiment [1] (setting [3]) worked out at 22.3 nM; in experiment [2] (72 h), 58.1 nM.

Take `COc1ncc(-c2ccc3ncnc(N4CCN(C(=O)/C=C/C(C)=O)[C@@H](CC#N)C4)c3c2)cc1NS(=O)(=O)c1c(F)cccc1F` [Example 116, (S,E)-N-(5-(4-(3-(cyanomethyl)-4-(4-oxopent-2-enoyl)piperazin-1-yl)quinazolin-6-yl)-2-methoxypyridin-3-yl)-2,6-difluorobenzenesulfonamide]: the values for the IC50 in experiment [1] (setting [3]) and in experiment [2] (72 h) were 95.9 nM and 232 nM, respectively.

Take `COc1ncc(-c2ccc3ncnc(C4=CCN(C(=O)/C=C/C(C)=O)CC4)c3c2)cc1NS(=O)(=O)c1c(F)cccc1Cl` [Example 202, (E)-2-chloro-6-fluoro-N-(2-methoxy-5-(4-(1-(4-oxopent-2-enoyl)-1,2,3,6-tetrahydropyridin-4-yl)quinazolin-6-yl)pyridin-3-yl)benzene-sulfonamide]: the IC50 in experiment [1] (setting [3]) came to 5.2 nM; in experiment [2] (72 h), 9.6 nM.
